{"source": "patent US10918640B2", "about": "“Azetidine derivatives” (Vernalis (R&D) Ltd., priority 2008, dated 2021)", "system": "carrageenan-induced thermal hypersensitivity", "experiment": "Rat carrageenan induced thermal hyperalgesia model of inflammatory pain", "type": "in vivo", "method": "Rat Carrageenan Induced Thermal Hyperalgesia Model of Inflammatory Pain.\nMale Wistar rats were assessed for thermal pain sensitivity by applying a focused light beam onto the hind paws and recording the time to paw withdrawal, before and after local intraplantar administration of carrageenan. After 3 h. thermal pain sensitivity was reassessed in treated and untreated hind paws prior to dosing with test compound or vehicle. Indomethacin was administered as a positive control.\nMale Sprague Dawley rats were tail-marked, and acclimatized to the plantar boxes on 3 separate occasions (6, 5 and 1 day prior to the test day) for at least 5 min on each occasion. […] The latency to withdraw both left and right hindpaws from the heat source was determined on 2 occasions (3 min apart). The mean across the 2 challenges was recorded as the baseline for each animal. Rats 18 and 30 were not used in the study as they had very high baseline readings, and they were replaced by 61 and 63. […]\nFor example, the compound of Example 13 above was tested as follows: Rats were dosed with intraplantar carrageenan at t=0; the compound of Example 13 (1, 3 & 10 mg/kg po) or vehicle (5% EtOH: 95% (1% methylcellulose in water) at t=2 h; indomethacin (10 mg/kg ip) or vehicle at t=2.5 h and thermal sensitivity was measured at t=3 h. Thus all rats received both oral and ip dosing."}
{"smiles": "O=C(Nc1cccnn1)N1CC(Oc2ccc(-c3ccccc3)cn2)C1", "note": "[Example 13, 3-(5-Phenyl-pyridin-2-yloxy)-azetidine-1-carboxylic acid pyridazin-3-ylamide]", "values": [{"measurement": "pain sensitivity relative to normal levels", "setting": "1, 3, 10 mg/kg p.o., rat", "result": "did not reduce pain sensitivity to below normal levels"}, {"measurement": "statistical significance of inhibition cf. vehicle/carrageenan group", "setting": "at 3 and 10 mg/kg doses p.o., one way ANOVA followed by Newman-Keuls post hoc tests", "result": "reached statistical significance"}]}
